Results taken from the NIST ThermoML archive (doi:10.1016/j.jct.2018.09.024).
± gives the expanded uncertainty stated by the source.

What was measured:
[1] = 101.33 kPa, Liquid, Laser flash apparatus
[2] = molar heat capacity at constant pressure; conditions: 101.33 kPa, Liquid, DSC

CCCCCCCCCCCC(=O)OC [methyl dodecanoate]
Conditions	molar heat capacity at constant pressure, [2] [J/K/mol]	thermal diffusivity, [1] [m2/s]
303.15 K	449 ± 18	8.27e-08 ± 4.4e-09
313.15 K	452.8 ± 18	8.15e-08 ± 4.3e-09
323.15 K	457.4 ± 19	8.03e-08 ± 4.3e-09
333.15 K	462.6 ± 19	7.91e-08 ± 4.2e-09
343.15 K	468.4 ± 19	7.79e-08 ± 4.2e-09
353.15 K	474.5 ± 19	7.67e-08 ± 4.1e-09
363.15 K	480.7 ± 20	7.55e-08 ± 4e-09
373.15 K	486.8 ± 20	7.43e-08 ± 4e-09
383.15 K	–	7.3e-08 ± 3.9e-09
393.15 K	–	7.18e-08 ± 3.8e-09
403.15 K	–	7.06e-08 ± 3.8e-09
413.15 K	–	6.94e-08 ± 3.7e-09
423.15 K	–	6.82e-08 ± 3.7e-09

CCCCCCCCC(=O)OC [methyl nonanoate]
Conditions	molar heat capacity at constant pressure, [2] [J/K/mol]	thermal diffusivity, [1] [m2/s]
303.15 K	351.7 ± 14	8.01e-08 ± 4.3e-09
313.15 K	354.7 ± 14	7.89e-08 ± 4.2e-09
323.15 K	358.6 ± 15	7.78e-08 ± 4.2e-09
333.15 K	363.1 ± 15	7.66e-08 ± 4.1e-09
343.15 K	367.9 ± 15	7.54e-08 ± 4e-09
353.15 K	372.8 ± 15	7.43e-08 ± 4e-09
363.15 K	377.6 ± 15	7.31e-08 ± 3.9e-09
373.15 K	382 ± 16	7.19e-08 ± 3.9e-09
383.15 K	–	7.08e-08 ± 3.8e-09

CCCCCCC(=O)OC [methyl heptanoate]
Conditions	molar heat capacity at constant pressure, [2] [J/K/mol]	thermal diffusivity, [1] [m2/s]
303.15 K	289.2 ± 12	7.82e-08 ± 4.2e-09
313.15 K	292.5 ± 12	7.71e-08 ± 4.1e-09
323.15 K	296.2 ± 12	7.59e-08 ± 4.1e-09
333.15 K	300.1 ± 12	7.48e-08 ± 4e-09
343.15 K	304.3 ± 12	7.36e-08 ± 3.9e-09
353.15 K	308.6 ± 12	7.25e-08 ± 3.9e-09
363.15 K	312.8 ± 13	7.14e-08 ± 3.8e-09
373.15 K	316.9 ± 13	–

CCCCCC(=O)OC [methyl hexanoate]
Conditions	molar heat capacity at constant pressure, [2] [J/K/mol]	thermal diffusivity, [1] [m2/s]
303.15 K	246.4 ± 10	7.76e-08 ± 4.1e-09
313.15 K	248.8 ± 10	7.66e-08 ± 4.1e-09
323.15 K	251.5 ± 10	7.56e-08 ± 4e-09
333.15 K	254.6 ± 10	7.46e-08 ± 4e-09
343.15 K	257.9 ± 10	–
353.15 K	261.5 ± 11	–
363.15 K	265.5 ± 11	–
373.15 K	269.6 ± 11	–

CCCCCCCCCCC(=O)OC [methyl undecanoate]
Conditions	molar heat capacity at constant pressure, [2] [J/K/mol]	thermal diffusivity, [1] [m2/s]
303.15 K	411.4 ± 17	8.22e-08 ± 4.4e-09
313.15 K	415.9 ± 17	8.1e-08 ± 4.3e-09
323.15 K	420.9 ± 17	7.98e-08 ± 4.3e-09
333.15 K	426.1 ± 17	7.86e-08 ± 4.2e-09
343.15 K	431.4 ± 18	7.74e-08 ± 4.1e-09
353.15 K	436.7 ± 18	7.62e-08 ± 4.1e-09
363.15 K	441.8 ± 18	7.5e-08 ± 4e-09
373.15 K	446.5 ± 18	7.38e-08 ± 4e-09
383.15 K	–	7.26e-08 ± 3.9e-09
393.15 K	–	7.14e-08 ± 3.8e-09
403.15 K	–	7.02e-08 ± 3.8e-09
413.15 K	–	6.9e-08 ± 3.7e-09
423.15 K	–	6.78e-08 ± 3.6e-09

CCCCCCCCCC(=O)OC [methyl decanoate]
Conditions	molar heat capacity at constant pressure, [2] [J/K/mol]	thermal diffusivity, [1] [m2/s]
303.15 K	384.7 ± 16	8.1e-08 ± 4.3e-09
313.15 K	387.6 ± 16	7.99e-08 ± 4.3e-09
323.15 K	391.8 ± 16	7.87e-08 ± 4.2e-09
333.15 K	396.7 ± 16	7.75e-08 ± 4.1e-09
343.15 K	401.9 ± 16	7.64e-08 ± 4.1e-09
353.15 K	407.3 ± 16	7.52e-08 ± 4e-09
363.15 K	412.4 ± 17	7.4e-08 ± 4e-09
373.15 K	417.2 ± 17	7.28e-08 ± 3.9e-09
383.15 K	–	7.17e-08 ± 3.8e-09
393.15 K	–	7.05e-08 ± 3.8e-09
403.15 K	–	6.93e-08 ± 3.7e-09

CCCCCCCC(=O)OC [methyl octanoate]
Conditions	molar heat capacity at constant pressure, [2] [J/K/mol]	thermal diffusivity, [1] [m2/s]
303.15 K	316.6 ± 13	7.92e-08 ± 4.2e-09
313.15 K	320.5 ± 13	7.81e-08 ± 4.2e-09
323.15 K	324.4 ± 13	7.69e-08 ± 4.1e-09
333.15 K	328.7 ± 13	7.57e-08 ± 4e-09
343.15 K	333.2 ± 14	7.46e-08 ± 4e-09
353.15 K	337.8 ± 14	7.34e-08 ± 3.9e-09
363.15 K	342.8 ± 14	7.22e-08 ± 3.9e-09
373.15 K	347 ± 14	7.11e-08 ± 3.8e-09
383.15 K	–	6.99e-08 ± 3.7e-09
